From US12679836B2, “4H-pyrrolo[3,2-c]pyridin-4-one compounds” (Bayer Aktiengesellschaft, priority 2019, dated 2026)
Like-named read-outs stand apart in the source and are kept apart here.

What was measured:
[1] = target: T1, EGFR with insertion of SVD between D770 and N771 (EGFR ins SVD) (Homo sapiens, UniProt P00533, DUP768-770); assay: Exon20-Mutant-EGFR(D770_N771insSVD) kinase assay (TR-FRET); type: biochemical; conditions: 2 mM ATP, several values per example where printed
T1 construct: made in house; host or cells: Sf9 insect cells (baculovirus)
T1 sequence (P00533 with tags, fused parts or gaps DUP768-770): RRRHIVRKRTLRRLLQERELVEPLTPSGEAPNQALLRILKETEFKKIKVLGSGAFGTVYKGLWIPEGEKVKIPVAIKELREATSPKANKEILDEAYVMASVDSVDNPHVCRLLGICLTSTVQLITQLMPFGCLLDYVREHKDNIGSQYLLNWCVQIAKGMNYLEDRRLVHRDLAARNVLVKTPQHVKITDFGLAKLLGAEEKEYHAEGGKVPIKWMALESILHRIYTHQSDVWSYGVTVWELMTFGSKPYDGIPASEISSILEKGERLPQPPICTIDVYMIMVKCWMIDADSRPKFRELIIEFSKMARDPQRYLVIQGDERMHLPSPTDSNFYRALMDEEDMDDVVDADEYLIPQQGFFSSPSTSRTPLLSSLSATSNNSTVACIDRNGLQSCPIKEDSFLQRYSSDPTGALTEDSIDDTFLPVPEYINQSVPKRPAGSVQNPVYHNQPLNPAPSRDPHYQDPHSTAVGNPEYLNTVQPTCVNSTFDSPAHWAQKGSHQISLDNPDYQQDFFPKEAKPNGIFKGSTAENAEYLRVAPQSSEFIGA

Ba/F3-EGFR-WT cells = Ba/F3-EGFR-WT cells (Homo sapiens, UniProt P00533); assay: Ba/F3 cell survival assay (Cell Titer-Glo), WT EGFR; type: cell-based; conditions: without IL-3, with 10 ng/mL EGF, 48 h; read-out: BA/F3 (wild type) IC50
Ba/F3-EGFR-WT cells, sequence (P00533 whole entry, stated change not applied): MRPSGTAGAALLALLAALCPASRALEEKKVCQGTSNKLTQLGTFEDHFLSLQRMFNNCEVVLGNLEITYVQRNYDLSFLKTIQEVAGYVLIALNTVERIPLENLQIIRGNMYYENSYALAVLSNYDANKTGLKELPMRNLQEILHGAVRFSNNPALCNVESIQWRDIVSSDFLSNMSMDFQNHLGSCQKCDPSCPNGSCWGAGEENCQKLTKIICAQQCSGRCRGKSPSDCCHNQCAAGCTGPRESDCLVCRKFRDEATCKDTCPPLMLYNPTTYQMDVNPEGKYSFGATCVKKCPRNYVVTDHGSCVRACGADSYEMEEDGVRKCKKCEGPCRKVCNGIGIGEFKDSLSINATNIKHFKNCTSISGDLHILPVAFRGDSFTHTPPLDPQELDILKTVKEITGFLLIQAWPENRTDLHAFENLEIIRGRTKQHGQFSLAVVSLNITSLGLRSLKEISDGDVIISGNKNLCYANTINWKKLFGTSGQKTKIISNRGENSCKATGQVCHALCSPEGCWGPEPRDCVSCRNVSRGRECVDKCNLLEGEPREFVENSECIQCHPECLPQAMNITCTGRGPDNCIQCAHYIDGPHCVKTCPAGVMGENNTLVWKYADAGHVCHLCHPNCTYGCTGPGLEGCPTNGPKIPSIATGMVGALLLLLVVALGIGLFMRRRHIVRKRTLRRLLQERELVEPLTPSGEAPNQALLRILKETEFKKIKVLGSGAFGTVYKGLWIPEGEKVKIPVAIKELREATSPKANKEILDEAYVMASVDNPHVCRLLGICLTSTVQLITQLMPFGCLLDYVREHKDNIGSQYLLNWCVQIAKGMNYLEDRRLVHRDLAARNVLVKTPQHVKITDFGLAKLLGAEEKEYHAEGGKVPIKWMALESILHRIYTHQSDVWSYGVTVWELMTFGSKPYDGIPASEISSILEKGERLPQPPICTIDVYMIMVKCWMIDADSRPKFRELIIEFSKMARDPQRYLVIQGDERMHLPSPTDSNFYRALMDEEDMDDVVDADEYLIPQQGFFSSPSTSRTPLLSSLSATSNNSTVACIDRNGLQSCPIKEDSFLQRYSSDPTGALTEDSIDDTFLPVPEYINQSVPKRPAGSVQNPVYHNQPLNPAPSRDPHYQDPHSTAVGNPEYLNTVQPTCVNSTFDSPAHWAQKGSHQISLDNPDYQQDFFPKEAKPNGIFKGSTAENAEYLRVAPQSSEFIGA
Protocol: (§1) 293T cells from ATCC were transfected with pBABEpuro expression constructs for WT EGFR or EGFR-insSVD and pCL-Eco packaging vector using Fugene-6 transfection reagent from Promega. Plates were incubated at 37° C. for 48 h. Retrovirus was harvested by filtering the media supernatant through a 0.45 μm filter.
(§2) Ba/F3 cells purchased from DSMZ were grown in RPMI+10% FBS+10 ng/mL IL-3 and infected with filtered retroviral supernatant at a 1:2 dilution. Polybrene was added to a concentration of 8 μg/mL, plates were spun for 90 min, and incubated overnight at 37° C. 2 μg/mL puromycin was added to the infected cells 24 h after infection and cells were continually grown in the presence of puromycin and 10 ng/mL IL-3. Following stably expressing Ba/F3 cell lines were generated: Ba/F3-EGFR-WT, Ba/F3-EGFR-insSVD, (Ba/F3-vector-control).
(§3) For cell survival assays, Ba/F3 cells were grown to a density of 1-2 million cells per mL, spun down and resuspended in media without IL-3, and replated at a concentration 200,000-500,000 cells per mL. The cells ectopically expressing WT EGFR or EGFR-insSVD were plated with 10 ng/mL Millipore Culture grade EGF. The cells ectopically expressing pBABEpuro empty vector were plated with 10 ng/mL IL-3. 2 days later, cells were plated in 50 μL in a 384 well plate at a concentration of 4000 cells per well for cells assayed in the absence of IL-3 and 2000 cells per well for cells assayed in the presence of IL-3. 100 nL of compound was added to each well using a 100 nL pin head, and plates were incubated at 37° C. for 48 h.
(§4) Cell viability was measured by adding 20 μL of Cell Titer-Glo Luminescent Cell Viability Reagent diluted 1:3 in PBS. Plates were sealed with Perkin Elmer Top-Seal, inverted several times to mix, and immediately centrifuged at 1000 rpm for 2 min. Plates were incubated in low light conditions for 8-10 min and luminescence was measured.

Bub1 = target: T2, Bub1 (Homo sapiens, UniProt O43683); assay: Bub1 TR-FRET high ATP kinase assay; type: biochemical; conditions: 2 mM ATP
T2 construct: catalytic domain of human Bub1 (amino acids 704-1085); His6 (N); made in house; host or cells: Hi5 insect cells
T2 sequence (O43683 704-1085): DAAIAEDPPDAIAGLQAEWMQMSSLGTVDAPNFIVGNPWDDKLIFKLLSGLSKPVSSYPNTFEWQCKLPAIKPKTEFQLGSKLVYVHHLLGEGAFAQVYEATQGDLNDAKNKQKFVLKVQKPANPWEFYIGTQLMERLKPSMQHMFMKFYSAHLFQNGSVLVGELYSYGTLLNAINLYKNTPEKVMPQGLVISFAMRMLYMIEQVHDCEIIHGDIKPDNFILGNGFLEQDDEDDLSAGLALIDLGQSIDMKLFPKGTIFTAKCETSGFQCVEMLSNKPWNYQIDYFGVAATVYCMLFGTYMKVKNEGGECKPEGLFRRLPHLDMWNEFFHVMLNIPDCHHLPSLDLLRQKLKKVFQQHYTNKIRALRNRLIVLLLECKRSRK
Excerpt: Bub1 High ATP Kinase Assay
Bub1-inhibitory activity of compounds of the present invention at a high ATP concentration was quantified employing the Bub1 TR-FRET high ATP kinase assay as described in the following paragraphs.
N-terminally His6-tagged recombinant catalytic domain of human Bub1 (amino acids 704-1085), expressed in insect cells (Hi5) and purified by Ni-NTA affinity chromatography and subsequent size exclusion chromatography, was used as enzyme. As substrate for the kinase reaction the biotinylated peptide biotin-Ahx-[…]—SEQ ID 7 (C-terminus in amid form) was used which can be purchased e.g. form the company Biosyntan (Berlin, Germany).

Ba/F3-EGFR-insSVD cells = Ba/F3-EGFR-insSVD cells (Homo sapiens, UniProt P00533, DUP768-770, cells depend on it); assay: Ba/F3 cell survival assay (Cell Titer-Glo), EGFR-insSVD; type: cell-based; conditions: without IL-3, with 10 ng/mL EGF, 48 h; read-out: BA/F3 (insSVD) IC50
Ba/F3-EGFR-insSVD cells, sequence (P00533 with tags, fused parts or gaps DUP768-770): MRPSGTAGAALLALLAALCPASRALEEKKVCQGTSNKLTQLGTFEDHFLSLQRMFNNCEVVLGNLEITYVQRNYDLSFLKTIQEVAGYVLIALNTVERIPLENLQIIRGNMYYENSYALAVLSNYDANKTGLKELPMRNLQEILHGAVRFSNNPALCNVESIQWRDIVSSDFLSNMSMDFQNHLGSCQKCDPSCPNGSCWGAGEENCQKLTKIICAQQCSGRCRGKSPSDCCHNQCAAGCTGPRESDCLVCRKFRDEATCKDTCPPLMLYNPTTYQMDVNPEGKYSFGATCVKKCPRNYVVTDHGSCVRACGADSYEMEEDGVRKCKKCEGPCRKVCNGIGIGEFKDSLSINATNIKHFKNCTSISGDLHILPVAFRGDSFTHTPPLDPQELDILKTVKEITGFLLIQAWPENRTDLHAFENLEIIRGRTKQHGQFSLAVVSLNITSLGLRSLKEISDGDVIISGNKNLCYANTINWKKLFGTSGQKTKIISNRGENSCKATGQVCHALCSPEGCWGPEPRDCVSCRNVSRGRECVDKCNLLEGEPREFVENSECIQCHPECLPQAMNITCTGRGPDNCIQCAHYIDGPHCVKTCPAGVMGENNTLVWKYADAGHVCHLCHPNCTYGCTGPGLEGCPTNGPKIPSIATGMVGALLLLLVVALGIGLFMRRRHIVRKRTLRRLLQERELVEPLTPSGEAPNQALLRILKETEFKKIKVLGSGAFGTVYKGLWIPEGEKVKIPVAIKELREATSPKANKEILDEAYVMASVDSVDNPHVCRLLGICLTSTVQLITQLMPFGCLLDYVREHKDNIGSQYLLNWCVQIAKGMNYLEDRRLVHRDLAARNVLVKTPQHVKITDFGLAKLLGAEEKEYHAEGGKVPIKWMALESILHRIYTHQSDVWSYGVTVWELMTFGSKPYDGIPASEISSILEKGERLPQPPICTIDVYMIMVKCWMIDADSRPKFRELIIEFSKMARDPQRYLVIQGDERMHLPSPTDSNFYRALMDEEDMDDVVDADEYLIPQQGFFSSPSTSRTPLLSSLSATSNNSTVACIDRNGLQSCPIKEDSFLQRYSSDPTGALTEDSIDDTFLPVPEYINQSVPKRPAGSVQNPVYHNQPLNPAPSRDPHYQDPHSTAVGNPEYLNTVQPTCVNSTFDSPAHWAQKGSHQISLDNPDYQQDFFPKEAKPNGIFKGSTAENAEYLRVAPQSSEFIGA
Protocol: as §1, §2, §3, §4

[2] = Bub1 high ATP (2 mM) IC50 [mol/l]
[3] = read-out: Bub1 high ATP (2 mM) IC50 [mol/l]

mutEGFR (D770_N771insSVD) kinase assay IC50 [1] [nM]	IC50 (Bub1; [2]) [nM]	IC50 (Bub1; [3]) [nM]	Structure (SMILES)	GI50 (Ba/F3-EGFR-WT cells) [nM]	GI50 (Ba/F3-EGFR-insSVD cells) [nM]
0.269	14000	–	COc1c(Cl)cccc1Nc1c(-c2ccncc2O[C@@H](C)C2COCCO2)[nH]c2c1C(=O)NCC2 (mixture of isomers) [Example 57, 3-(3-chloro-2-methoxyanilino)-2-{3-[(1S)-1-(1,4-dioxan-2-yl)ethoxy]pyridin-4-yl}-1,5,6,7-tetrahydro-4H-pyrrolo[3,2-c]pyridin-4-one]	539	28
0.137	3330	–	COc1c(Cl)cccc1Nc1c(-c2ccncc2OC[C@H]2COCCO2)[nH]c2c1C(=O)NCC2 (single isomer, unassigned) [Example 3]	755	22.8
0.0891	4230	–	O=C1NCCc2[nH]c(-c3ccncc3OCC3COCCO3)c(Nc3cccc(Cl)c3Cl)c21 (single isomer, unassigned) [Example 9, 3-(2,3-Dichloroanilino)-2-{3-[(1,4-dioxan-2-yl)methoxy]pyridin-4-yl}-1,5,6,7-tetrahydro-4H-pyrrolo[3,2-c]pyridin-4-one]	303	32.7
0.139	> 20000	–	COc1c(F)cccc1Nc1c(-c2ccncc2OCC2CN(C)CCO2)[nH]c2c1C(=O)NCC2 (single isomer, unassigned) [Example 13, 3-(3-fluoro-2-methoxyanilino)-2-{3-[(4-methylmorpholin-2-yl)methoxy]pyridin-4-yl}-1,5,6,7-tetrahydro-4H-pyrrolo[3,2-c]pyridin-4-one]	1520	–
0.228	> 20000	–	COc1c(Cl)cccc1Nc1c(-c2ccncc2OCC2CN(C)CCO2)[nH]c2c1C(=O)NCC2 (single isomer, unassigned) [Example 16, 3-(3-chloro-2-methoxyanilino)-2-(3-{[4-methylmorpholin-2-yl]methoxy}pyridin-4-yl)-1,5,6,7-tetrahydro-4H-pyrrolo[3,2-c]pyridin-4-one]	1050	126
0.156	–	> 20000	COc1c(Cl)cccc1Nc1c(-c2ccncc2OCC2CN(C)CCO2)[nH]c2c1C(=O)NCC2 (single isomer, unassigned) [Example 17, 3-(3-chloro-2-methoxyanilino)-2-(3-{[4-methylmorpholin-2-yl]methoxy}pyridin-4-yl)-1,5,6,7-tetrahydro-4H-pyrrolo[3,2-c]pyridin-4-one]	231	9.53
0.282	> 20000	–	COc1c(Cl)cccc1Nc1c(-c2ccncc2OCCC2COCCO2)[nH]c2c1C(=O)NCC2 (single isomer, unassigned) [Example 25, 3-(3-chloro-2-methoxyanilino)-2-{3-[2-(4-dioxan-2-yl)ethoxy]pyridin-4-yl}-1,5,6,7-tetrahydro-4H-pyrrolo[3,2-c]pyridin-4-one]	349	18.3
0.213	1080	–	COc1c(Cl)cccc1Nc1c(-c2ccncc2OCCC2COCCO2)[nH]c2c1C(=O)NCC2 (single isomer, unassigned) [Example 26, 3-(3-chloro-2-methoxyanilino)-2-{3-[2-(4-dioxan-2-yl)ethoxy]pyridin-4-yl}-1,5,6,7-tetrahydro-4H-pyrrolo[3,2-c]pyridin-4-one]	839	89.9
0.133	–	–	COc1c(Cl)cccc1Nc1c(-c2ccncc2OCC2COC(C)(C)CO2)[nH]c2c1C(=O)NCC2 (single isomer, unassigned) [Example 31, 3-(3-chloro-2-methoxyanilino)-2-{3-[(5,5-dimethyl-1,4-dioxan-2-yl)methoxy]pyridin-4-yl}-1,5,6,7-tetrahydro-4H-pyrrolo[3,2-c]pyridin-4-one]	–	–
0.213	> 20000	–	COc1c(F)cccc1Nc1c(-c2ccncc2OCC2COC(C)(C)CO2)[nH]c2c1C(=O)NCC2 (single isomer, unassigned) [Example 33, 2-(3-{[5,5-dimethyl-1,4-dioxan-2-yl]methoxy}pyridin-4-yl)-3-(3-fluoro-2-methoxyanilino)-1,5,6,7-tetrahydro-4H-pyrrolo[3,2-c]pyridin-4-one]	557	102
0.193	–	> 20000	COc1c(F)cccc1Nc1c(-c2ccncc2OCC2COC(C)(C)CO2)[nH]c2c1C(=O)NCC2 (single isomer, unassigned) [Example 34, 2-(3-{[5,5-dimethyl-1,4-dioxan-2-yl]methoxy}pyridin-4-yl)-3-(3-fluoro-2-methoxyanilino)-1,5,6,7-tetrahydro-4H-pyrrolo[3,2-c]pyridin-4-one]	204	12
–	2820	–	COc1c(F)cccc1Nc1c(-c2ccncc2OCCC2COCCO2)[nH]c2c1C(=O)NCC2 (single isomer, unassigned) [Example 36, 2-(3-{2-[1,4-dioxan-2-yl]ethoxy}pyridin-4-yl)-3-(3-fluoro-2-methoxyanilino)-1,5,6,7-tetrahydro-4H-pyrrolo[3,2-c]pyridin-4-one]	845	68.1
0.492	> 5710	–	Cc1c(Cl)cccc1Nc1c(-c2ccncc2OCC2COC(C)(C)CO2)[nH]c2c1C(=O)NCC2 (single isomer, unassigned) [Example 45, 3-(3-chloro-2-methyl-anilino)-2-[3-[(5,5-dimethyl-1,4-dioxan-2-yl)methoxy]-4-pyridyl]-1,5,6,7-tetrahydropyrrolo[3,2-c]pyridin-4-one]	1640	–
–	13900	–	COc1c(Cl)cccc1Nc1c(-c2ccncc2O[C@@H](C)C2COCCO2)[nH]c2c1C(=O)NCC2 (single isomer, unassigned) [Example 58, 3-(3-chloro-2-methoxyanilino)-2-{3-[(1 S)-1-(1,4-dioxan-2-yl)ethoxy]pyridin-4-yl}-1,5,6,7-tetrahydro-4H-pyrrolo[3,2-c]pyridin-4-one]	519	29.8
0.935	–	–	COc1c(Cl)cccc1Nc1c(-c2ccncc2O[C@H](C)C2COCCO2)[nH]c2c1C(=O)NCC2 (single isomer, unassigned) [Example 61]	3770	300
–	> 20000	–	COc1c(Cl)cccc1Nc1c(-c2ccncc2OCC2COC(C)(C)CO2)[nH]c2c1C(=O)NCC2 (stereo not drawn) [Example 30, 3-(3-chloro-2-methoxyanilino)-2-{3-[(5,5-dimethyl-1,4-dioxan-2-yl)methoxy]pyridin-4-yl}-1,5,6,7-tetrahydro-4H-pyrrolo[3,2-c]pyridin-4-one]	407	19.3
0.15	–	–	Cc1c(Cl)cccc1Nc1c(-c2ccncc2OCC2COC(C)(C)CO2)[nH]c2c1C(=O)NCC2 (stereo not drawn) [Example 44, 3-(3-chloro-2-methyl-anilino)-2-[3-[(5,5-dimethyl-1,4-dioxan-2-yl)methoxy]-4-pyridyl]-1,5,6,7-tetrahydropyrrolo[3,2-c]pyridin-4-one]	–	25.7
–	5010	–	Cc1c(F)cccc1Nc1c(-c2ccncc2OCC2COCCO2)[nH]c2c1C(=O)NCC2 (stereo not drawn) [Example 47, 2-[3-(1,4-dioxan-2-ylmethoxy)-4-pyridyl]-3-(3-fluoro-2-methyl-anilino)-1,5,6,7-tetrahydropyrrolo[3,2-c]pyridin-4-one]	715	41.6
